{"source": "paper PMC9226124", "about": "“Macrocycle-stabilization of its interaction with 14-3-3 increases plasma membrane localization and activity of CFTR” (Nature Communications, 2022)", "key": {"[1]": {"biological_target": "T1, 3HA-tagged F508del-CFTR in BHK cells (Homo sapiens, UniProt P13569, DEL508-508)", "T1 construct": "expressed in transfected cells; host or cells: baby hamster kidney (BHK) cells (Carlile et al. 2007)", "T1 sequence (P13569 with tags, fused parts or gaps DEL508-508)": "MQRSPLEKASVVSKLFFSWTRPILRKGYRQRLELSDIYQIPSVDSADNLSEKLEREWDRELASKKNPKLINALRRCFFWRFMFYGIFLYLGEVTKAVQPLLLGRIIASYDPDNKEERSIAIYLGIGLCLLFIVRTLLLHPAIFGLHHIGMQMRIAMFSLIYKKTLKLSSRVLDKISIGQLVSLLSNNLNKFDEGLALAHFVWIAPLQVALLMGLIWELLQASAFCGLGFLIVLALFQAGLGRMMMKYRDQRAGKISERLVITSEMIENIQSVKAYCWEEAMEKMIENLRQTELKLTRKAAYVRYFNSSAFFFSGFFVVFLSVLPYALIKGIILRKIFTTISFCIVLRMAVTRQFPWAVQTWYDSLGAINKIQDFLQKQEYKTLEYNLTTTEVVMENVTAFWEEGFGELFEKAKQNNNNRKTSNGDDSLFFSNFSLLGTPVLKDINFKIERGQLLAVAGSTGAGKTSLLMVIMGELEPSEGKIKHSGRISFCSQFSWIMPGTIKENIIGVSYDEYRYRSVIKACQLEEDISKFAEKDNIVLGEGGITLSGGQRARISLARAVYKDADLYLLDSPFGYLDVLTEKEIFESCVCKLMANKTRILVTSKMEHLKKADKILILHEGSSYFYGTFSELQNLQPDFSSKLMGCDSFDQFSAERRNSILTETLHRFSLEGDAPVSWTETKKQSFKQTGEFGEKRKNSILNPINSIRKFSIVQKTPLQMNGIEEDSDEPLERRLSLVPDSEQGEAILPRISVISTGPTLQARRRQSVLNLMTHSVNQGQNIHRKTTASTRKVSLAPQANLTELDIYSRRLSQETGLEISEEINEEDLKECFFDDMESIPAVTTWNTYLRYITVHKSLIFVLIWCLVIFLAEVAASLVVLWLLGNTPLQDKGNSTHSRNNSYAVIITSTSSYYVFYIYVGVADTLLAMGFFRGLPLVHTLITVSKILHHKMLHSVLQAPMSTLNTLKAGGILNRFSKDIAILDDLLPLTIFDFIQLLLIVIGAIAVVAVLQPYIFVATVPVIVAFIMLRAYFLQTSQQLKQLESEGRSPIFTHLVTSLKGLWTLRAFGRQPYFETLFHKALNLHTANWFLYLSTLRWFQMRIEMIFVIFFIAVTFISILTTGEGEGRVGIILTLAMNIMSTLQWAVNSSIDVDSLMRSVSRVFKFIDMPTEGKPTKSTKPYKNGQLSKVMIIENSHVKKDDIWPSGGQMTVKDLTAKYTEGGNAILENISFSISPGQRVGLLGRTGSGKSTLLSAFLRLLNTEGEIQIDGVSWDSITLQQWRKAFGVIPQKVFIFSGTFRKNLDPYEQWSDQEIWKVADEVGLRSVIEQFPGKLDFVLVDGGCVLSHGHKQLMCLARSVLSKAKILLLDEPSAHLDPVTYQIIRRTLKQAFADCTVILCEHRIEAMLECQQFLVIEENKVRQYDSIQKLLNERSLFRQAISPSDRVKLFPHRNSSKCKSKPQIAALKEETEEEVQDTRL", "assay": "CFTR trafficking assay (surface expression)", "type": "cell-based, hamster", "details": "individual replicates", "summary_of_the_method": "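BHK cells expressing 3HA-tagged F508del-CFTR treated 24 h with 10 μM compound (1% DMSO final), fixed, stained with anti-HA plus FITC-conjugated anti-mouse IgG. Fluorescence (488/510 nm) background-subtracted and normalized to DMSO control and wt-CFTR-expressing cells.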"}, "[2]": {"biological_target": "T2, 14-3-3β/CFTRpS753pS768 complex (Homo sapiens, UniProt P13569+P31946)", "T2 construct": "His6 (cleaved yes); made in house; peptide synthetic", "T2 sequence (P31946 whole entry)": "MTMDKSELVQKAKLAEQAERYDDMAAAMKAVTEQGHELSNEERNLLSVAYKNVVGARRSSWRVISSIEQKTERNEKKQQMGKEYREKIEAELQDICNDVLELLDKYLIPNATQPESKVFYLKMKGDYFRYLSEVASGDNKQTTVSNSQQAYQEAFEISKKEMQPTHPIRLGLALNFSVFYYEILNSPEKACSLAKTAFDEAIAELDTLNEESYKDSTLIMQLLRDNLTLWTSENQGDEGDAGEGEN", "T2 sequence (P13569 747-774 limits assumed)": "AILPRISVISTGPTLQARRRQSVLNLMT", "assay": "Dose-response fluorescence polarization (FP) assay, compound titration", "type": "binding", "details": "for FP signal: With 14-3-3; for Polarization, background subtracted: 14-3-3 10 μM, peptide 100 nM, replicates", "summary_of_the_method": "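Compounds were titrated in two-fold dilutions against 10 μM 14-3-3β and FITC-CFTR pS753pS768 peptide (100 nM or 10 nM). Buffer: 10 mM HEPES pH 7.4, 150 mM NaCl, 0.1% Tween20, 1 mg/mL BSA. Polarization was read at ex 485/em 535 nm, and EC50 was derived from a four-parameter variable-slope fit.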"}}, "note": "Several values for one entry are separate records, joined by “and”; a condition that tells them apart may be missing. Identical values can stand only once."}
{"smiles": "C=CC(C)(C)OC[C@H]1O[C@H](O[C@@H]2C3=C([C@H](C)COC(C)=O)C[C@H](O)[C@]3(C)/C=C3/[C@@H](COC)CC[C@H]3[C@@H](C)[C@H]2O)[C@H](O)[C@@H](OC(C)=O)[C@@H]1O", "note": "[FC-A, fusicoccin A, reference compound]", "values": [{"measurement": "F508del-CFTR surface expression signal (Fig5a)", "setting": "[1]", "value": "1016.54 and 1064.51 and 1045.89"}, {"measurement": "EC50", "setting": "[2]; 14-3-3β 10 μM, labeled CFTRpS753pS768 100 nM, read-out: EC50", "value": 69.7, "unit": "µM"}, {"measurement": "FP signal", "setting": "[2]; compound 476.8 pM", "value": 1}, {"measurement": "FP signal", "setting": "[2]; compound 953.7 pM", "value": 5}, {"measurement": "FP signal", "setting": "[2]; compound 1.90735e-9 M", "value": 0}, {"measurement": "FP signal", "setting": "[2]; compound 3.8147e-9 M", "value": 3}, {"measurement": "FP signal", "setting": "[2]; compound 7.6294e-9 M", "value": 3}, {"measurement": "FP signal", "setting": "[2]; compound 1.52588e-8 M", "value": 2}, {"measurement": "FP signal", "setting": "[2]; compound 3.05176e-8 M", "value": 2}, {"measurement": "FP signal", "setting": "[2]; compound 6.10352e-8 M", "value": 1}, {"measurement": "FP signal", "setting": "[2]; compound 1.2207e-7 M", "value": 1}, {"measurement": "FP signal", "setting": "[2]; compound 2.44141e-7 M", "value": 2}, {"measurement": "FP signal", "setting": "[2]; compound 4.88281e-7 M", "value": 4}, {"measurement": "FP signal", "setting": "[2]; compound 9.76563e-7 M", "value": 5}, {"measurement": "FP signal", "setting": "[2]; compound 1.95313e-6 M", "value": 6}, {"measurement": "FP signal", "setting": "[2]; compound 3.90625e-6 M", "value": 15}, {"measurement": "FP signal", "setting": "[2]; compound 7.8125e-6 M", "value": 23}, {"measurement": "FP signal", "setting": "[2]; compound 1.5625e-5 M", "value": 37}, {"measurement": "FP signal", "setting": "[2]; compound 3.125e-5 M", "value": 53}, {"measurement": "FP signal", "setting": "[2]; compound 6.25e-5 M", "value": 70}, {"measurement": "FP signal", "setting": "[2]; compound 0.000125 M", "value": 91}, {"measurement": "FP signal", "setting": "[2]; compound 0.00025 M", "value": 104}, {"measurement": "FP signal", "setting": "[2]; compound 0.0005 M", "value": 116}, {"measurement": "FP signal", "setting": "[2]; compound 0.001 M", "value": 133}, {"measurement": "Polarization, background subtracted", "setting": "[2]; compound 7.8125e-7 M", "value": "8.267 (2×) and 9.167"}, {"measurement": "Polarization, background subtracted", "setting": "[2]; compound 1.5625e-6 M", "value": "13.6667 (2×) and 15.2667"}, {"measurement": "Polarization, background subtracted", "setting": "[2]; compound 3.125e-6 M", "value": "22.4667 and 22.7667 and 24.2667"}, {"measurement": "Polarization, background subtracted", "setting": "[2]; compound 6.25e-6 M", "value": "35.6667 and 36.6667 (2×)"}, {"measurement": "Polarization, background subtracted", "setting": "[2]; compound 1.25e-5 M", "value": "51.9667 and 52.3667 and 53.1667"}, {"measurement": "Polarization, background subtracted", "setting": "[2]; compound 2.5e-5 M", "value": "71.5667 and 71.6667 and 72.5667"}, {"measurement": "Polarization, background subtracted", "setting": "[2]; compound 5e-5 M", "value": "88.8667 and 90.2667 and 89.8667"}, {"measurement": "Polarization, background subtracted", "setting": "[2]; compound 0.0001 M", "value": "104.867 and 104.367 and 104.267"}]}
